{"source": "patent US10905702B2", "about": "(priority 2016, dated 2021)", "key": {"[1]": {"target": "T1, rhGal3 binding onto A549 cells (Homo sapiens, UniProt P17931)", "T1 construct": "made in house; host or cells: Escherichia coli BL21 (DE3)", "T1 sequence (P17931 whole entry)": "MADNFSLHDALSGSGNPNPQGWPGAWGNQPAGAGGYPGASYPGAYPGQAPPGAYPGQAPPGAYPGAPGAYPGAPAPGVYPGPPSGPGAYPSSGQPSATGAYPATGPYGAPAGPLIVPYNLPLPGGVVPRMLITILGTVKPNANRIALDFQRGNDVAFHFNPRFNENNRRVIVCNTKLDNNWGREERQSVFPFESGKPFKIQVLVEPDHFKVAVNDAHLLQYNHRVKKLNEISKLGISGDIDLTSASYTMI", "experiment": "Flow cytometry of rhGal3 binding to A549 cells and its inhibition", "type": "cell-based"}, "[2]": {"target": "T2, recombinant human Gal3 (Homo sapiens, UniProt P17931)", "T2 construct": "made in house; host or cells: Escherichia coli BL21 (DE3)", "T2 sequence (P17931 whole entry)": "as above", "experiment": "Inhibition of hGal3 binding to asialofetuin (microtiter plate)", "conditions": "biotinylated rhGal3 5 ug/ml pre-mixed with inhibitor; TDG 5 mM; Lac 50 mM; FIG. 12", "procedure": "Ninety-six well microtiter plates were coated with 1 ug/well of asialofetuin (10 μg/ml in PBS, 100 ul each well) for 3 h at 37° C., washed and blocked with 3% BSA in PBS overnight at 4° C. […] The reaction was stopped with 1 M HCl and the optical density (OD) at 450 nm from each well was measured by SpectraMax 340 plate reader (Molecular Device)."}, "[3]": {"system": "SOCS1, SOCS3, SOCS4 expression in A549 cells", "experiment": "SOCS expression in A549 cells incubated with rhGal3 with or without TDG (quantitative realtime PCR)", "type": "cell-based, human", "description": "A549 cells were grown in 12-well plates and incubated with 0˜30 μg/ml of rhGal3 for 1 hour. After washing, RNA was extracted from the cells and subjected to reverse-transcription, followed by quantitative realtime PCR with designed primers for SOCS1, SOCS3, SOCS4, and beta-actin. Ct values were calculated and the relative expression level was calculated as 2^(Ct actin−Ct target)."}, "[4]": {"system": "ERK, AKT, p38 MAPK, STAT1 and NF-κB phosphorylation in A549 cells", "type": "cell-based, human"}, "[5]": {"system": "RIG1", "type": "cell-based, human"}, "[6]": {"system": "SOCS1", "type": "cell-based, human", "conditions": "15 μg/ml, 1 h"}, "[7]": {"system": "A549 cells", "type": "cell-based, human", "conditions": "for extracellular cytokine levels: A549 cells, treatment alone vs untreated cells, FIG. 7"}, "[8]": {"conditions": "hGal3 10 μg/ml pre-mixed with 0~10 mM disaccharide"}, "[9]": {"conditions": "NeuK-treated A549 cells, 15 μg/ml"}, "[10]": {"conditions": "A549 cells pre-exposed to NeuK, 15 μg/ml"}, "[11]": {"conditions": "A549 cells, treatment alone, vs control"}}, "note": "Read-outs that look alike come from different tables or passages of the source.", "data": [{"compound": "CC(=O)N[C@H]1C(O)O[C@H](CO)[C@H](O)[C@@H]1O[C@@H]1O[C@H](CO)[C@H](O)[C@H](O)[C@H]1O", "note": "(stereo partly shown) [TF disaccharides, Galβ1,3GalNAc]", "values": [{"measurement": "inhibition of hGal3 binding onto A549 cells (MFI)", "setting": "[1]; [8]", "result": "inhibit the binding"}]}, {"compound": "OC[C@H]1O[C@@H](S[C@@H]2O[C@H](CO)[C@H](O)[C@H](O)[C@H]2O)[C@H](O)[C@@H](O)[C@H]1O", "note": "[TDG, thiodigalactoside]", "values": [{"measurement": "inhibition of hGal3 binding onto A549 cells (MFI)", "setting": "[1]; [8]", "result": "inhibit the binding"}, {"measurement": "inhibition of hGal3 binding onto A549 cells (MFI)", "setting": "[1]; hGal3 pre-mixed with Lac 50 mM, TDG 50 mM or 10 mM", "result": "inhibit binding well"}, {"measurement": "inhibition of rhGal3 binding to asialofetuin (OD 450 nm)", "setting": "[2]", "result": "partially inhibit"}, {"measurement": "SOCS expression (SOCS1, SOCS3, SOCS4)", "setting": "[3]; 30 μg rhGal3 pre-mixed with TDG 50 mM, one hour, FIG. 17", "result": "offset all the galectin's effect in suppressing SOCS expression"}, {"measurement": "SOCS expression", "setting": "[3]; disaccharide (TDG 50 mM) alone, one hour", "result": "some positive effect in SOCS expression"}]}, {"compound": "rhGal1: recombinant human galectin-1", "values": [{"measurement": "phosphorylation level of ERK", "setting": "[4]; [9]", "result": "increased"}, {"measurement": "phosphorylation level of STAT1", "setting": "[4]; [9]", "result": "increased"}, {"measurement": "phosphorylation level of p38", "setting": "[4]; [9]", "result": "remained at the level of the NeuK-treated A549 control"}, {"measurement": "phosphorylation level of AKT, decreased to", "setting": "[4]; untreated A549 cells, 15 μg/ml", "result": "50 % of the control level"}, {"measurement": "RIG1 expression, increase", "setting": "[5]; NeuK-pretreated A549 cells, 15 μg/ml", "result": "about 12 fold"}, {"measurement": "RIG1 expression, decreased to", "setting": "[5]; exposure alone, A549 cells, 15 μg/ml", "result": "about 50 % of the unexposed control"}, {"measurement": "SOCS1 expression", "setting": "[6]; A549 cells pre-treated with NeuK", "result": "returned to the control levels"}, {"measurement": "SOCS1 expression, decrease", "setting": "[6]; untreated A549 cells", "result": "20-30%"}, {"measurement": "IL-6 level in culture supernatant, increase", "setting": "[7]; [10]", "result": 4, "unit": "fold"}, {"measurement": "IL-8 level in culture supernatant, increase", "setting": "[7]; [10]", "result": 5, "unit": "fold"}, {"measurement": "IL-15 level in culture supernatant, increase", "setting": "[7]; [10]", "result": 25, "unit": "fold"}, {"measurement": "extracellular cytokine levels", "setting": "[7]", "result": "the levels of IFNγ, IL-6, IL-8, and IL-10 increased"}]}, {"compound": "rhGal3: recombinant human galectin-3", "values": [{"measurement": "phosphorylation level of AKT", "setting": "[4]; [11]", "result": "up to 4 fold"}, {"measurement": "phosphorylation level of ERK", "setting": "[4]; [11]", "result": "increased"}, {"measurement": "phosphorylation level of STAT1", "setting": "[4]; [11]", "result": "increased"}, {"measurement": "phosphorylation level of p38", "setting": "[4]; [11]", "result": "remained unchanged"}, {"measurement": "phosphorylation of p38, decrease", "setting": "[4]; NeuK-treated A549 cells compared with effect on untreated cells", "result": "more than 50%"}, {"measurement": "phosphorylation level of AKT", "setting": "[4]; [9]", "result": 1.5, "unit": "fold"}, {"measurement": "phosphorylation level of ERK", "setting": "[4]; [9]", "result": 3, "unit": "fold"}, {"measurement": "RIG1 expression, downregulated to", "setting": "[5]; NeuK treatment followed by exposure, 15 μg/ml", "result": "about 20 % of the unexposed controls"}, {"measurement": "RIG1 expression, increase", "setting": "[5]; treatment alone, A549 cells", "result": "about 4 fold"}, {"measurement": "SOCS1 expression, downregulated", "setting": "[6]; untreated or NeuK-treated A549 cells", "result": "60-70 % of the control levels"}, {"measurement": "SOCS expression (SOCS1, SOCS3, SOCS4)", "setting": "[3]; 0~30 μg/ml rhGal3, 1 hour, FIG. 16", "result": "suppress SOCS expression in dose-dependent manner"}, {"measurement": "IL-1β, IL-10 and IL-12 levels in culture supernatant", "setting": "[7]; [10]", "result": "had no effect"}, {"measurement": "IL-6 level in culture supernatant, increase", "setting": "[7]; [10]", "result": 8, "unit": "fold"}, {"measurement": "IL-8 level in culture supernatant, increase", "setting": "[7]; [10]", "result": 15, "unit": "fold"}, {"measurement": "IL-15 level in culture supernatant, increase", "setting": "[7]; [10]", "result": 20, "unit": "fold"}, {"measurement": "extracellular cytokine levels", "setting": "[7]", "result": "increased levels of IFNγ, TNFα, IL-10, IL-6, and IL-8"}]}]}
